Measurements reported in article PMC1500811, “Neofunctionalization in Vertebrates: The Example of Retinoic Acid Receptors” (PLoS Genetics, 2006).
Each block holds one molecule with its values, some of them ahead of it.

Columns and labels:
[1] = molecular target: T1, AmphiRAR (Branchiostoma floridae, UniProt Q8MX80); test: Gal4-RAR(LBD) luciferase transactivation in Cos-1 cells; type: cell-based; set-up: LBD from Ser154 fused to Gal4 residues 1-147; details: agonist; one collective range given for all chordate RARs
T1 sequence (Q8MX80 entry or part of it): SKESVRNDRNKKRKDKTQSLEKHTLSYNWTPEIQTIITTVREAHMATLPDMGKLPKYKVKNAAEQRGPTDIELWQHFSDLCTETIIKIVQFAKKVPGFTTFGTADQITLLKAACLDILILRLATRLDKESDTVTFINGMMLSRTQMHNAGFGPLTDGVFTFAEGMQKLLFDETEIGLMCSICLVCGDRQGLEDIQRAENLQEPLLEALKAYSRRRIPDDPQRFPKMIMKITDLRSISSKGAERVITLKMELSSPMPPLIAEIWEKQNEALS

[2] = molecular target: T2, PmRAR (Polyandrocarpa misakiensis, UniProt K7ZRU3); test: as above; type: cell-based; set-up: gene Pm-RAR; LBD fused to Gal4 residues 1-147; details: agonist; one collective range given for all chordate RARs
T2 sequence (K7ZRU3 208-503 limits assumed): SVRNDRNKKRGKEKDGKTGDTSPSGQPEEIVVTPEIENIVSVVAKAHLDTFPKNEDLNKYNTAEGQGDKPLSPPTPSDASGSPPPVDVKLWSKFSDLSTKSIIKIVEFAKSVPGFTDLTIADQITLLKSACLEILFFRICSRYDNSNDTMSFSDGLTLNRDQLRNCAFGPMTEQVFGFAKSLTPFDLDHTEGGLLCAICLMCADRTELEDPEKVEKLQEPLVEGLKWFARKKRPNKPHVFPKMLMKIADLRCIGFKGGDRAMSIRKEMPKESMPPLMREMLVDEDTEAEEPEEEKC

[3] = system: T3, xRARβ; test: as above; type: cell-based, Xenopus laevis; details: agonist; one collective range given for all chordate RARs
T3 construct: gene rarb; LBD fused to Gal4 residues 1-147; in vitro translated for proteolysis

[4] = system: T4, AncRAR; test: as above; type: cell-based, synthetic construct; details: agonist; one collective range given for all chordate RARs
T4 construct: maximum-likelihood reconstructed LBD fused to Gal4 residues 1-147
From the text: Gal4-RAR(LBD) luciferase transactivation in Cos-1 cells on AncRAR | all the chordate RARs, including the reconstructed AncRAR, are able to transactivate in a dose-dependent manner

[5] = molecular target: T5, xRARα (Xenopus laevis, UniProt P51126); test: as above; type: cell-based; details: agonist; one collective range given for all chordate RARs
T5 construct: gene rara; LBD fused to Gal4 residues 1-147; in vitro translated for proteolysis
T5 sequence (P51126 155-458 limits assumed): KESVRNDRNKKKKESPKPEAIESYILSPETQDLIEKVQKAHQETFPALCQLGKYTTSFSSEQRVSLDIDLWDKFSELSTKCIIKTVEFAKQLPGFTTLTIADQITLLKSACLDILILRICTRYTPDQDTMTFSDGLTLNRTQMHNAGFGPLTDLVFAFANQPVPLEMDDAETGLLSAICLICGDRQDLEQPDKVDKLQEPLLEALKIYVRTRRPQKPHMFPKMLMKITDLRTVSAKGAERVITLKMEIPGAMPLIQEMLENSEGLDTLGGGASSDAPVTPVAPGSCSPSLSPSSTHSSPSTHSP

[6] = system: T6, zfRARα; test: as above; type: cell-based, Danio rerio; details: agonist; one collective range given for all chordate RARs
T6 construct: gene raraa; LBD fused to Gal4 residues 1-147; in vitro translated for proteolysis

[7] = system: T7, zfRARγ; test: as above; type: cell-based, Danio rerio; details: agonist; one collective range given for all chordate RARs
T7 construct: gene rarga; LBD fused to Gal4 residues 1-147; in vitro translated for proteolysis

[8] = molecular target: T8, xRARγ (Xenopus laevis, UniProt P28699); test: as above; type: cell-based; details: agonist; one collective range given for all chordate RARs
T8 construct: gene rarg; LBD fused to Gal4 residues 1-147; in vitro translated for proteolysis
T8 sequence (P28699 166-476 limits assumed): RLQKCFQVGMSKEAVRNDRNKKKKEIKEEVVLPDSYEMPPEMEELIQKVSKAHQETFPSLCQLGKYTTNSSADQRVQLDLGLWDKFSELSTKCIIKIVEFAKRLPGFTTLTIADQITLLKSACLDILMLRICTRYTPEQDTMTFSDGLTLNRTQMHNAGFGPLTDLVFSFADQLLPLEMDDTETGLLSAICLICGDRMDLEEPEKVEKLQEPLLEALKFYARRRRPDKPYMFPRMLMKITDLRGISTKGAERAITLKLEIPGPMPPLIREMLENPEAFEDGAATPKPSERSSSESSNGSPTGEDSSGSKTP

[9] = molecular target: T1, AmphiRAR; test: limited trypsin proteolysis of in vitro-translated receptor; type: binding; set-up: LBD from Ser154 fused to Gal4 residues 1-147; in vitro translated for proteolysis; details: ligand 10^-4 to 10^-5 M, room temperature
[10] = molecular target: T2, PmRAR; test: as above; type: binding; set-up: gene Pm-RAR; LBD fused to Gal4 residues 1-147; in vitro translated for proteolysis; details: ligand 10^-4 to 10^-5 M, room temperature

EC50 [1]: ~ 10^−9 to 10^−8 M | EC50 [2]: ~ 10^−9 to 10^−8 M | EC50 [3]: ~ 10^−9 to 10^−8 M | EC50 [4]: ~ 10^−9 to 10^−8 M | EC50 [5]: ~ 10^−9 to 10^−8 M | EC50 [6]: ~ 10^−9 to 10^−8 M | EC50 [7]: ~ 10^−9 to 10^−8 M | EC50 [8]: ~ 10^−9 to 10^−8 M
SMILES: CC1=C(/C=C/C(C)=C/C=C/C(C)=C/C(=O)O)C(C)(C)CCC1 [ATRA]

SMILES: CC1(C)C(=O)C(C)(C)c2cc(C(=O)Nc3ccc(C(=O)O)cc3)ccc21 [BMS753]
limited trypsin proteolysis of in vitro-translated receptor [9]: It also binds the α-specific compound (BMS753) (Figure 4F)

SMILES: CC1(C)CC=C(c2ccccc2)c2cc(/C=C/c3ccc(C(=O)O)cc3Cl)ccc21 [BMS641]
limited trypsin proteolysis of in vitro-translated receptor [10]: both PmRAR and AncRAR are able to bind weakly the β-specific retinoid (BMS641)
